Test results taken from patent US10245261B2, “Substituted indol-5-ol derivatives and their therapeutic applications” (NantBioScience, Inc., priority 2013, dated 2019).

Tests used:
Experiment in all cases: KinaseProfiler kinase assay
Format in all cases: biochemical
LIMK1(h) = LIMK1(h) (Homo sapiens, UniProt P53667)
Method in brief: (§1)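 Each enzyme was assayed radiometrically: 40 min room-temperature reaction with [γ-33P]ATP and 10 mM Mg acetate, acid-stopped, filtered, scintillation-counted.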

Rse(h) = Rse(h) (Homo sapiens, UniProt Q06418)
Method in brief: as §1

CLK3(h) = CLK3(h) (Homo sapiens, UniProt P49761)
Method in brief: as §1

MAPKAP-K3(h) = MAPKAP-K3(h) (Homo sapiens, UniProt Q16644)
Method in brief: as §1

Mnk2(h) = Mnk2(h) (Homo sapiens, UniProt Q9HBH9)
Method in brief: as §1

PKG1α(h) = PKG1α(h) (Homo sapiens, UniProt Q13976)
Method in brief: as §1

PKCι(h) = PKCι(h) (Homo sapiens, UniProt P41743)
Sequence of PKCι(h) (P41743 whole entry): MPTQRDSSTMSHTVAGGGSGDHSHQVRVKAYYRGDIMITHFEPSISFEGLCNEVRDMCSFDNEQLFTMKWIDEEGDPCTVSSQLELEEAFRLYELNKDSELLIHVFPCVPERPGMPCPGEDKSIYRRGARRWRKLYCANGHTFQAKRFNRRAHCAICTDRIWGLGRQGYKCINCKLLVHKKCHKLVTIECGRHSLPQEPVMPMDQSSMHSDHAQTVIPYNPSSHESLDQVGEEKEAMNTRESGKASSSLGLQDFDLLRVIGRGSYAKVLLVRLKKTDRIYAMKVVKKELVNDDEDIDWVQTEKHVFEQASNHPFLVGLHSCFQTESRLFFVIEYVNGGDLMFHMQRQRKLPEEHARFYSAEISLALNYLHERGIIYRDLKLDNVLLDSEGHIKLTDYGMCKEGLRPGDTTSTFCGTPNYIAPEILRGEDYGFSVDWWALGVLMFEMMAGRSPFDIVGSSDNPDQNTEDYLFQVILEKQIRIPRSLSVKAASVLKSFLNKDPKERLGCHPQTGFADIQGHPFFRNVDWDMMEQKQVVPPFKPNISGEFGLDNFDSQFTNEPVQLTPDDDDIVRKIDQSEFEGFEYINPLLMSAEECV
Method in brief: as §1

PAR-1Bα(h) = PAR-1Bα(h) (Homo sapiens, UniProt Q7KZI7)
Method in brief: as §1

[1] = molecular target: PI3 Kinase (p110α(E542K)/p85α)(m) (Mus musculus, UniProt P42337, E542K)
Method in brief: as §1

Hck(h) activated = Hck(h) activated (Homo sapiens, UniProt P08631)
Method in brief: as §1

TrkA(h) = TrkA(h) (Homo sapiens, UniProt P04629)
Method in brief: as §1

BrSK1(h) = BrSK1(h) (Homo sapiens, UniProt Q8TDC3)
Method in brief: as §1

Src(T341M)(h) = Src(T341M)(h) (Homo sapiens, UniProt P12931, T341M)
Sequence of Src(T341M)(h) (P12931 whole entry T341M): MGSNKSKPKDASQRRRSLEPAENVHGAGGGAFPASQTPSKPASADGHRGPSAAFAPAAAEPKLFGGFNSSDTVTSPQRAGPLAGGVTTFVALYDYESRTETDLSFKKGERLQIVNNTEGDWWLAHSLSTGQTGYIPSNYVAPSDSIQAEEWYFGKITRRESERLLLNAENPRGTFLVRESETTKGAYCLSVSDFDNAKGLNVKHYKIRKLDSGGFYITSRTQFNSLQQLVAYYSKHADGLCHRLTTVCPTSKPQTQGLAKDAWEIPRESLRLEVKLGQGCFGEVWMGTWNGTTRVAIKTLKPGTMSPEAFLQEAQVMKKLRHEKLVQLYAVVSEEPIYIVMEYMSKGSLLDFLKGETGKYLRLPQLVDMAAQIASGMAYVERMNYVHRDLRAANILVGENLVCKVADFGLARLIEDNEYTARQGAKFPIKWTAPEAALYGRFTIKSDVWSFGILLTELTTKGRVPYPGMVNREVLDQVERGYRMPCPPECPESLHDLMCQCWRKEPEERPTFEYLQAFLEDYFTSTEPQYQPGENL
Method in brief: as §1

Rsk1(r) = Rsk1(r) (Rattus norvegicus, UniProt Q63531)
Sequence of Rsk1(r) (Q63531 whole entry): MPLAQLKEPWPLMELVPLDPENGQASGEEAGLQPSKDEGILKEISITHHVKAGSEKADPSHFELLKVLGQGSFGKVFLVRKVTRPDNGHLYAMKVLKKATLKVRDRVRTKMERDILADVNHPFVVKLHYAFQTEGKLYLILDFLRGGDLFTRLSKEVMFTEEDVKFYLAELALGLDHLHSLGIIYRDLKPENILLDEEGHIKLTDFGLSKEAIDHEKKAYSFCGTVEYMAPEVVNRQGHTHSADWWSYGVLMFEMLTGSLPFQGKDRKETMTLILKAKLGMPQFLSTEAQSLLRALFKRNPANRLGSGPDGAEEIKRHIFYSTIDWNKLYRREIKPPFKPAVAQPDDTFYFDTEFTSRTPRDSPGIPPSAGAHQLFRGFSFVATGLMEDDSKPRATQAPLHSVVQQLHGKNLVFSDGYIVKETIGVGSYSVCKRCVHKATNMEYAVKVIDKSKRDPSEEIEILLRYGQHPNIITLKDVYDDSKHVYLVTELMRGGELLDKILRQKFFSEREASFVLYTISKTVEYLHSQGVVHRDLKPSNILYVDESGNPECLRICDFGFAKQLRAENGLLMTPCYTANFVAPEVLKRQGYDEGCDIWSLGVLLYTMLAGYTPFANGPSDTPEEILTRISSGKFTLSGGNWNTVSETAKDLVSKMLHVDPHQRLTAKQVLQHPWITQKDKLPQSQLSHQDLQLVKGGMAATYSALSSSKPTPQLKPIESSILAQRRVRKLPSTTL
Method in brief: as §1

ULK2(h) = ULK2(h) (Homo sapiens, UniProt Q8IYT8)
Method in brief: as §1

PKCβII(h) = PKCβII(h) (Homo sapiens, UniProt P05771)
Sequence of PKCβII(h) (P05771 1-673 isoform P05771-2): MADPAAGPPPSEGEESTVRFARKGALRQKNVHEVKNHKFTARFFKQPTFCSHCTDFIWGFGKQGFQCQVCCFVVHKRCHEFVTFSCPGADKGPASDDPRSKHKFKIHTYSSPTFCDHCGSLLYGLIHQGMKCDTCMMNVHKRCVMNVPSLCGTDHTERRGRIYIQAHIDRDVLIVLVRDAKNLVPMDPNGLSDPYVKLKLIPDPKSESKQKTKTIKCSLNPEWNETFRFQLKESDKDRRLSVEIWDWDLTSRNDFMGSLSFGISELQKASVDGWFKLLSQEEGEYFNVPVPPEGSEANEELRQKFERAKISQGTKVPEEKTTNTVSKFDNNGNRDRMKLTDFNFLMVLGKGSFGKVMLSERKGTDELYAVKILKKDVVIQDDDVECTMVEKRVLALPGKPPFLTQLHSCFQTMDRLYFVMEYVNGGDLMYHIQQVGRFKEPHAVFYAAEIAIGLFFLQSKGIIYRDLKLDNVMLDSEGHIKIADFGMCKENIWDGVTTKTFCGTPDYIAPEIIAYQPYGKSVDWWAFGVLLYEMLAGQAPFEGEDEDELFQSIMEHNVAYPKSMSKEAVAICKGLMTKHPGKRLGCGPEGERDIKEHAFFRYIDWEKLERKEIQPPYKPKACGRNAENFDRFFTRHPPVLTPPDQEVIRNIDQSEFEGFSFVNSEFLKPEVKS
Method in brief: as §1

Plk3(h) = Plk3(h) (Homo sapiens, UniProt Q9H4B4)
Sequence of Plk3(h) (Q9H4B4 whole entry): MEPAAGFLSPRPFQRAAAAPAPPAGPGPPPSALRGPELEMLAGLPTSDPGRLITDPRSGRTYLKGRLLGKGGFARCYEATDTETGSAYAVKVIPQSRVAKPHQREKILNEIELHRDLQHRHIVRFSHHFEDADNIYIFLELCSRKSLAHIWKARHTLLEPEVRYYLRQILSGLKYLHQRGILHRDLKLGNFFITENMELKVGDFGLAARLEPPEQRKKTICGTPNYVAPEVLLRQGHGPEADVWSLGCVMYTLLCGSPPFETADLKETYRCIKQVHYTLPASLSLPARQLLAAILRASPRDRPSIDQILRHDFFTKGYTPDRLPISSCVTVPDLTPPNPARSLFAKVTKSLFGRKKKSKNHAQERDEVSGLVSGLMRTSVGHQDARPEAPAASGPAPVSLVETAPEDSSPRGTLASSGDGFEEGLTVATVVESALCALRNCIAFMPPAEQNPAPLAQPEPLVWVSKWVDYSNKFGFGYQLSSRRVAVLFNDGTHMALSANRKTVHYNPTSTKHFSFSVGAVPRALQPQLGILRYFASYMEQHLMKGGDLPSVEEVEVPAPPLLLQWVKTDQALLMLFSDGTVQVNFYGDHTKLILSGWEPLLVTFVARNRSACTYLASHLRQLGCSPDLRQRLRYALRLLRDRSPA
Method in brief: as §1

NEK3(h) = NEK3(h) (Homo sapiens, UniProt P51956)
Method in brief: as §1

JNK3(h) = JNK3(h) (Homo sapiens, UniProt P53779)
Method in brief: as §1

CK2(h) = CK2(h) (Homo sapiens, UniProt P68400)
Sequence of CK2(h) (P68400 whole entry): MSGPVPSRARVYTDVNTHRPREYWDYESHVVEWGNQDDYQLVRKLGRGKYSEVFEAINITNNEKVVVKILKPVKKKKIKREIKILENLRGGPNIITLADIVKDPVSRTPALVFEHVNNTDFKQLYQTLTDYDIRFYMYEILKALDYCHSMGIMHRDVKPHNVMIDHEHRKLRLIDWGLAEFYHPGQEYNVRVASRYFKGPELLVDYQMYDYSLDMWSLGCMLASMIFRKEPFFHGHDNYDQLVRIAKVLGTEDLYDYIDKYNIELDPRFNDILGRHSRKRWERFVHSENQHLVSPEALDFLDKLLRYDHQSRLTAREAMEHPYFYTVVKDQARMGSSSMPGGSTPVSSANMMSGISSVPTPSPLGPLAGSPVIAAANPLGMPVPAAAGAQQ
Sequence of CK2(h) (P67870 whole entry partner): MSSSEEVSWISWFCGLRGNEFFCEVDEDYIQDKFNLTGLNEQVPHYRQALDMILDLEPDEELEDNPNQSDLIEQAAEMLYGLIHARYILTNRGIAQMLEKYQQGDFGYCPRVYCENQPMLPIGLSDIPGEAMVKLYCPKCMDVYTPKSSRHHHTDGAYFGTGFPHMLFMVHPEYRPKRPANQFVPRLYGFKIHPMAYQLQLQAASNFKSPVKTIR
Method in brief: as §1

Abl(m) = Abl(m) (Mus musculus, UniProt P00520)
Sequence of Abl(m) (P00520 whole entry): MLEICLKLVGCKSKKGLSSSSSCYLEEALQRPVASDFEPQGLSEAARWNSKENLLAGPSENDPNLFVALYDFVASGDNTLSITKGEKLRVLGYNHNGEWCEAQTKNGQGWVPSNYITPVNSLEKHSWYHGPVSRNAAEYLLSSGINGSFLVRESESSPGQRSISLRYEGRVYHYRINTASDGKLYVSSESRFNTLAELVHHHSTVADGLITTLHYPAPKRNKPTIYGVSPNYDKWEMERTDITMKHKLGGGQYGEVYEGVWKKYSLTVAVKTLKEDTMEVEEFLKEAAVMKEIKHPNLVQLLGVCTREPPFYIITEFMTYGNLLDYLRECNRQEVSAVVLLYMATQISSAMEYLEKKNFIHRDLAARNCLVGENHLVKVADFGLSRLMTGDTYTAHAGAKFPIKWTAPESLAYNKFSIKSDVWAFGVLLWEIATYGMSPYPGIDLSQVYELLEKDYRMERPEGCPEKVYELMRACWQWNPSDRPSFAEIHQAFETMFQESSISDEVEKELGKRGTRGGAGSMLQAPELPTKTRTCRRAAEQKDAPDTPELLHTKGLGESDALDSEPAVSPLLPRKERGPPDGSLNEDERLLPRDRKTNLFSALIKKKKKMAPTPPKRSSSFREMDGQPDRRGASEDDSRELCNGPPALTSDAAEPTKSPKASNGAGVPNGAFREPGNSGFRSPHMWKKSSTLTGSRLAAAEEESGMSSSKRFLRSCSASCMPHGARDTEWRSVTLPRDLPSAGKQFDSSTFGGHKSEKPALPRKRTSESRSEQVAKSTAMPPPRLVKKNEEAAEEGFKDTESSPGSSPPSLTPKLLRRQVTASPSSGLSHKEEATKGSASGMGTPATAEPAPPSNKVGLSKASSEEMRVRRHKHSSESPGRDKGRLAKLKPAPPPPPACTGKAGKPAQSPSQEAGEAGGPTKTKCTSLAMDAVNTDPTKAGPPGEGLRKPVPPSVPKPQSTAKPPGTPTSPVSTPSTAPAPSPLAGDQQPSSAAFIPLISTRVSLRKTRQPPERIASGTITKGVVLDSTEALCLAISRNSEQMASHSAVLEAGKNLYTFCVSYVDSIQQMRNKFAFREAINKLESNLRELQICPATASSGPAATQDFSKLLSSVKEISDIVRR
Method in brief: as §1

Pim-3(h) = Pim-3(h) (Homo sapiens, UniProt Q86V86)
Method in brief: as §1

HIPK2(h) = HIPK2(h) (Homo sapiens, UniProt Q9H2X6)
Method in brief: as §1

PAK6(h) = PAK6(h) (Homo sapiens, UniProt Q9NQU5)
Method in brief: as §1

DDR2(h) = DDR2(h) (Homo sapiens, UniProt Q16832)
Method in brief: as §1

MSSK1(h) = MSSK1(h) (Homo sapiens, UniProt Q9UPE1)
Method in brief: as §1

[2] = molecular target: PI3 Kinase (p110δ/p85α)(m) (Mus musculus, UniProt O35904)
Method in brief: as §1

Tie2(R849W)(h) = Tie2(R849W)(h) (Homo sapiens, UniProt Q02763, R849W)
Method in brief: as §1

GRK5(h) = GRK5(h) (Homo sapiens, UniProt P34947)
Method in brief: as §1

Plk1(h) = Plk1(h) (Homo sapiens, UniProt P53350)
Method in brief: as §1

AMPKα2(h) = AMPKα2(h) (Homo sapiens, UniProt P54646)
Method in brief: as §1

PKG1β(h) = PKG1β(h) (Homo sapiens, UniProt Q13976)
Method in brief: as §1

Compound	inhibition at 0.1 µM (LIMK1(h)) [%]	inhibition at 0.1 µM (Rse(h)) [%]	inhibition at 0.1 µM (CLK3(h)) [%]	inhibition at 0.1 µM (MAPKAP-K3(h)) [%]	inhibition at 0.1 µM (Mnk2(h)) [%]	inhibition at 0.1 µM (PKG1α(h)) [%]	inhibition at 0.1 µM (PKCι(h)) [%]	inhibition at 0.1 µM (PAR-1Bα(h)) [%]	inhibition at 0.1 µM [1] [%]	inhibition at 0.1 µM (Hck(h) activated) [%]	inhibition at 0.1 µM (TrkA(h)) [%]	inhibition at 0.1 µM (BrSK1(h)) [%]	inhibition at 0.1 µM (Src(T341M)(h)) [%]	inhibition at 0.1 µM (Rsk1(r)) [%]	inhibition at 0.1 µM (ULK2(h)) [%]	inhibition at 0.1 µM (PKCβII(h)) [%]	inhibition at 0.1 µM (Plk3(h)) [%]	inhibition at 0.1 µM (NEK3(h)) [%]	inhibition at 0.1 µM (JNK3(h)) [%]	inhibition at 0.1 µM (CK2(h)) [%]	also measured
Cc1cc2c(F)c(Oc3nc(Nc4cc(C5CC5)[nH]n4)cc(N4CCN(C)CC4)n3)ccc2[nH]1 [Compound 10]	83	3	16	4	1	-25	0	75	1	90	102	47	102	16	37	3	1	18	-1	8	inhibition at 0.1 µM (Abl(m)): 101%; inhibition at 0.1 µM (Pim-3(h)): -1%; inhibition at 0.1 µM (HIPK2(h)): -2%; inhibition at 0.1 µM (PAK6(h)): 0%; inhibition at 0.1 µM (DDR2(h)): 80%; inhibition at 0.1 µM (MSSK1(h)): 22%; inhibition at 0.1 µM [2]: -19%; inhibition at 0.1 µM (Tie2(R849W)(h)): 88%; inhibition at 0.1 µM (GRK5(h)): 18%; inhibition at 0.1 µM (Plk1(h)): -9%; inhibition at 0.1 µM (AMPKα2(h)): 90%; inhibition at 0.1 µM (PKG1β(h)): -11%
Cc1cc2c(F)c(Oc3nc(Nc4cc(C5CC5)[nH]n4)cc(N4CCNCC4)n3)ccc2[nH]1 [Compound 11, N-(5-cyclopropyl-1H-pyrazol-3-yl)-2-((4-fluoro-2-methyl-1H-indol-5-yl)oxy)-6-(piperazin-1-yl)pyrimidin-4-amine]	90	11	-14	-15	-2	-5	-10	66	1	84	100	40	101	14	30	-3	1	16	-6	5	inhibition at 0.1 µM (Abl(m)): 104%; inhibition at 0.1 µM (Pim-3(h)): -4%; inhibition at 0.1 µM (HIPK2(h)): 0%; inhibition at 0.1 µM (PAK6(h)): 35%; inhibition at 0.1 µM (DDR2(h)): 83%; inhibition at 0.1 µM (MSSK1(h)): 0%; inhibition at 0.1 µM [2]: 6%; inhibition at 0.1 µM (Tie2(R849W)(h)): 93%; inhibition at 0.1 µM (GRK5(h)): -2%; inhibition at 0.1 µM (Plk1(h)): -10%; inhibition at 0.1 µM (AMPKα2(h)): 88%; inhibition at 0.1 µM (PKG1β(h)): -2%
